Experimental data as given in article PMC9146423, “Discovery of Nitro-azolo[1,5-a]pyrimidines with Anti-Inflammatory and Protective Activity against LPS-Induced Acute Lung Injury” (Pharmaceuticals, 2022).
pIC50: −log10 of the molar value.

Tested on: LPS-stimulated peritoneal macrophages of C57bl/6j mice
Test: IL-6 secretion by LPS-stimulated peritoneal macrophages (ELISA)
Format: cell-based
Details: Mus musculus, Peritoneal macrophage, 95% C.I. 1.43-9.87 μM
Method: Peritoneal macrophages (PM) were isolated from the peritoneal exudate of 30 male C57bl/6j mice. To accumulate PM, 1 mL of 3% peptone solution was injected intraperitoneally. After 3 days, the mice were euthanized by cervical dislocation. Cells of peritoneal exudate were obtained by aseptic washing of the abdominal cavity with 5 mL of sterile Hanks’s solution (+4–6 °C) without calcium and magnesium ions. The total number and viability of cells were assessed in a Goryaev counting chamber (Russia) with a 0.4% trypan blue staining (Sigma-Aldrich, St. Louis, MO, USA). The cell concentration was adjusted to 1.0 × 10^6 cells/mL in DMEM (Gibco) supplemented with 2 mM L-glutamine (Gibco, Waltham, MA, USA), 10% heat-inactivated fetal bovine serum (BioClot, Bavaria, Germany), 100 U/mL penicillin, and […] streptomycin (Gibco) and plated 200 μL/well in 96-well transparent plates (SPL Life Sciences Co., Ltd., Pocheon-si, Korea). After 2 h at 37 °C in a humidified atmosphere with 5% CO2, the wells were washed to remove non-adherent cells. […]
The cell supernatant was collected and centrifuged at 1000 g for 20 min in a 2–16PK centrifuge (Sigma, Osterode am Harz, Germany). The concentrations of IL-6 and TNF-α were determined by ELISA using commercial kits (Cloud-clone, Houston, TX, USA) with a microplate reader Infinite M200 PRO (Tecan, Grödig, Austria).

Cc1nc2nnnn2c(NCCc2ccc(O)cc2)c1[N+](=O)[O-] [Compound 9g, N-[2-(4-Hydroxyphenyl)ethyl]-5-methyl-6-nitrotetrazolo-[1,5-a]pyrimidin-7-amine]
pIC50: 5.43
